US7494754B2, “Electrophotographic photoreceptor containing asymmetric naphthalenetetracarboxylic acid diimide derivatives and electrophotographic imaging apparatus employing the same” (Samsung Electronics Co., Ltd., priority 2005, dated 2009)

Assay: Solubility test in organic solvents
Assay type: physicochemical
Conditions: for Methylene chloride (g): amount of solvent required to completely dissolve 1 g of the tested compound / Tetrahydrofuran (g): amount of solvent required to completely dissolve 1 g of the tested compound: room temperature, 1 g compound
Description: 1 g of a compound to be tested was poured into a test tube with stirring at room temperature and solvents listed in Table 1 were slowly added drop by drop. The amounts of the solvents required to completely dissolve 1 g of the tested compound were measured.

Methylene chloride (g): amount of solvent required to completely dissolve 1 g of the tested compound	Tetrahydrofuran (g): amount of solvent required to completely dissolve 1 g of the tested compound	solubility in organic solvents (in words)	SMILES
1.3 g	7 g	–	CCCCN1C(=O)c2ccc3c4c(ccc(c24)C1=O)C(=O)N(C(CC)c1ccccc1)C3=O (stereo not shown) [Compound (12)]
1.5 g	12 g	–	CCCCN1C(=O)c2ccc3c4c(ccc(c24)C1=O)C(=O)N(C(C)c1ccccc1)C3=O (stereo not shown) [Compound (4)]
17 g	74 g	very poor solubility	CCCCN1C(=O)c2ccc3c4c(ccc(c24)C1=O)C(=O)N(CCCC)C3=O [Compound (40)]
3.5 g	50 g	poor solubility	CC(c1ccccc1)N1C(=O)c2ccc3c4c(ccc(c24)C1=O)C(=O)N(C(C)c1ccccc1)C3=O (stereo not shown) [Compound (30)]
